From US12552783B2, “Modulators of proteolysis and associated methods of use” (Arvinas Operations, Inc., priority 2018, dated 2026)

Target: KRas (Homo sapiens, UniProt P01116, G12C)
Experiment: KRas degradation in NCI-H2030 cells by Western blot, normalized to GAPDH (data of Table 14)
Assay type: cell-based
Set-up: host or cells: NCI-H2030
Conditions: for Dmax: NCI-H2030
How it was run: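 Degradation of endogenous homozygous G12C KRas is measured by immunoblot after serum starvation and compound exposure at three final concentrations (0.3, 1 and 3 μM). VHL-recruiting compounds are incubated 24 h and all others 72 h. Percent loss is calculated from GAPDH-normalized KRas relative to vehicle.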

| Structure (SMILES) | Percent Degradation at Indicated Concentration (μM) (H2030, 0.3 μM) | Percent Degradation at Indicated Concentration (μM) (H2030, 1 μM) | Percent Degradation at Indicated Concentration (μM) (H2030, 3 μM) | Dmax | Percent Degradation at Indicated Concentration (μM) (H2030 cells, 3 μM) | Percent Degradation at Indicated Concentration (μM) (H2030 cells, 0.3 μM) | Percent Degradation at Indicated Concentration (μM) (H2030 cells, 1 μM) |
| --- | --- | --- | --- | --- | --- | --- | --- |
| C=CC(=O)N1CCN(c2nc(NCCC(=O)N(C)CCNc3cccc4c3C(=O)N(C3CCC(=O)NC3=O)C4=O)nc3c(F)c(-c4c(O)cccc4F)c(Cl)cc23)CC1 [compound 108, 3-(((R)-4-(4-acryloylpiperazin-1-yl)-6-chloro-8-fluoro-7-(2-fluoro-6-hydroxyphenyl)quinazolin-2-yl)amino)-N-(2-((2-(2,6-dioxopiperidin-3-yl)-1,3-dioxoisoindolin-4-yl)amino)ethyl)-N-methylpropanamide] | C (Percent Degradation: C ≤ 35) | C (Percent Degradation: C ≤ 35) | C (Percent Degradation: C ≤ 35) | ≤ 35% |  |  |  |
| C=CC(=O)N1CCN(c2nc(NCCC(=O)N(C)CCOCCNc3cccc4c3C(=O)N(C3CCC(=O)NC3=O)C4=O)nc3c(F)c(-c4c(O)cccc4F)c(Cl)cc23)CC1 [compound 109, 3-(((S)-4-(4-acryloylpiperazin-1-yl)-6-chloro-8-fluoro-7-(2-fluoro-6-hydroxyphenyl)quinazolin-2-yl)amino)-N-(2-(2-((2-(2,6-dioxopiperidin-3-yl)-1,3-dioxoisoindolin-4-yl)amino)ethoxy)ethyl)-N-methylpropanamide] | C (Percent Degradation: C ≤ 35) | C (Percent Degradation: C ≤ 35) | C (Percent Degradation: C ≤ 35) | ≤ 35% |  |  |  |
| C=CC(=O)N1CCN(c2nc(NCCC(=O)N(C)CCOCCOCCNc3cccc4c3C(=O)N(C3CCC(=O)NC3=O)C4=O)nc3c(F)c(-c4c(O)cccc4F)c(Cl)cc23)CC1 [compound 111, 3-(((S)-4-(4-acryloylpiperazin-1-yl)-6-chloro-8-fluoro-7-(2-fluoro-6-hydroxyphenyl)quinazolin-2-yl)amino)-N-(2-(2-(2-((2-(2,6-dioxopiperidin-3-yl)-1,3-dioxoisoindolin-4-yl)amino)ethoxy)ethoxy)ethyl)-N-methylpropanamide] | C (Percent Degradation: C ≤ 35) | C (Percent Degradation: C ≤ 35) | C (Percent Degradation: C ≤ 35) | ≤ 35% |  |  |  |
| C=CC(=O)N1CCN(c2nc(NCCC(=O)N(C)CCOCCOCCOCCNc3cccc4c3C(=O)N(C3CCC(=O)NC3=O)C4=O)nc3c(F)c(-c4c(O)cccc4F)c(Cl)cc23)CC1 [compound 113, 3-(((S)-4-(4-acryloylpiperazin-1-yl)-6-chloro-8-fluoro-7-(2-fluoro-6-hydroxyphenyl)quinazolin-2-yl)amino)-N-(2-(2-(2-(2-((2-(2,6-dioxopiperidin-3-yl)-1,3-dioxoisoindolin-4-yl)amino)ethoxy)ethoxy)ethoxy)ethyl)-N-methylpropanamide] | C (Percent Degradation: C ≤ 35) | C (Percent Degradation: C ≤ 35) | C (Percent Degradation: C ≤ 35) | ≤ 35% |  |  |  |
| C=CC(=O)N1CCN(c2nc(NCCC(=O)N(C)CCOCCOCCOCCOCCNc3cccc4c3C(=O)N(C3CCC(=O)NC3=O)C4=O)nc3c(F)c(-c4c(O)cccc4F)c(Cl)cc23)CC1 [compound 115, 3-(((S)-4-(4-acryloylpiperazin-1-yl)-6-chloro-8-fluoro-7-(2-fluoro-6-hydroxyphenyl)quinazolin-2-yl)amino)-N-(14-((2-(2,6-dioxopiperidin-3-yl)-1,3-dioxoisoindolin-4-yl)amino)-3,6,9,12-tetraoxatetradecyl)-N-methylpropanamide] |  |  | C (Percent Degradation: C ≤ 35) |  |  |  |  |
| C=CC(=O)N1CCN(c2nc(NCCC(=O)N(C)CCOCCOCCOCCOCCNc3cccc4c3C(=O)N(C3CCC(=O)NC3=O)C4=O)nc3c(F)c(-c4c(O)cccc4F)c(Cl)cc23)CC1 [compound 116, 3-(((R)-4-(4-acryloylpiperazin-1-yl)-6-chloro-8-fluoro-7-(2-fluoro-6-hydroxyphenyl)quinazolin-2-yl)amino)-N-(14-((2-(2,6-dioxopiperidin-3-yl)-1,3-dioxoisoindolin-4-yl)amino)-3,6,9,12-tetraoxatetradecyl)-N-methylpropanamide] | C (Percent Degradation: C ≤ 35) | C (Percent Degradation: C ≤ 35) | C (Percent Degradation: C ≤ 35) | ≤ 35% |  |  |  |

Further lines, results first:

| Percent Degradation at Indicated Concentration (μM) (H2030, 0.3 μM) | Percent Degradation at Indicated Concentration (μM) (H2030, 1 μM) | Percent Degradation at Indicated Concentration (μM) (H2030, 3 μM) | Dmax | Percent Degradation at Indicated Concentration (μM) (H2030 cells, 3 μM) | Percent Degradation at Indicated Concentration (μM) (H2030 cells, 0.3 μM) | Percent Degradation at Indicated Concentration (μM) (H2030 cells, 1 μM) | Structure (SMILES) |
| --- | --- | --- | --- | --- | --- | --- | --- |
| C (Percent Degradation: C ≤ 35) | C (Percent Degradation: C ≤ 35) | C (Percent Degradation: C ≤ 35) | ≤ 35% |  |  |  | CN(CCOCCOCCOCCNc1cccc2c1C(=O)N(C1CCC(=O)NC1=O)C2=O)C(=O)CCNc1nc(N2CCN(C(N)=O)CC2)c2cc(Cl)c(-c3c(O)cccc3F)c(F)c2n1 [compound 146, 4-((7S)-6-chloro-2-((1-((2-(2,6-dioxopiperidin-3-yl)-1,3-dioxoisoindolin-4-yl)amino)-12-methyl-13-oxo-3,6,9-trioxa-12-azapentadecan-15-yl)amino)-8-fluoro-7-(2-fluoro-6-hydroxyphenyl)quinazolin-4-yl)piperazine-1-carboxamide] |
|  |  |  |  | C (Percent Degradation: C ≤ 35) |  |  | CN(CCOCCOc1ccc2c(c1)C(=O)N(C1CCC(=O)NC1=O)C2=O)C(=O)CCNc1nc(N2CCN(C(=O)C(O)O)CC2)c2cc(Cl)c(-c3c(O)cccc3F)c(F)c2n1 [compound 149, 3-(((S)-6-chloro-4-(4-(2,2-dihydroxyacetyl)piperazin-1-yl)-8-fluoro-7-(2-fluoro-6-hydroxyphenyl)quinazolin-2-yl)amino)-N-(2-(2-((2-(2,6-dioxopiperidin-3-yl)-1,3-dioxoisoindolin-5-yl)oxy)ethoxy)ethyl)-N-methylpropanamide] |
|  |  |  |  | C (Percent Degradation: C ≤ 35) | C (Percent Degradation: C ≤ 35) | C (Percent Degradation: C ≤ 35) | CN(CCOCCOc1ccc2c(c1)C(=O)N(C1CCC(=O)NC1=O)C2=O)C(=O)CCNc1nc(N2CCN(C(=O)C(O)O)CC2)c2cc(Cl)c(-c3c(O)cccc3F)c(F)c2n1 [compound 150, 3-(((R)-6-chloro-4-(4-(2,2-dihydroxyacetyl)piperazin-1-yl)-8-fluoro-7-(2-fluoro-6-hydroxyphenyl)quinazolin-2-yl)amino)-N-(2-(2-((2-(2,6-dioxopiperidin-3-yl)-1,3-dioxoisoindolin-5-yl)oxy)ethoxy)ethyl)-N-methylpropanamide] |
|  |  |  |  | C (Percent Degradation: C ≤ 35) |  |  | CN(CCOCCOCCOc1ccc2c(c1)C(=O)N(C1CCC(=O)NC1=O)C2=O)C(=O)CCNc1nc(N2CCN(C(=O)C(O)O)CC2)c2cc(Cl)c(-c3c(O)cccc3F)c(F)c2n1 [compound 151, 3-(((S)-6-chloro-4-(4-(2,2-dihydroxyacetyl)piperazin-1-yl)-8-fluoro-7-(2-fluoro-6-hydroxyphenyl)quinazolin-2-yl)amino)-N-(2-(2-(2-((2-(2,6-dioxopiperidin-3-yl)-1,3-dioxoisoindolin-5-yl)oxy)ethoxy)ethoxy)ethyl)-N-methylpropanamide] |
